Experimental data as given in patent US7115619B2, “N8, N13 -disubstituted quino[4,3,2-kl]acridinium salts as therapeutic agents” (Cancer Research Technology Limited, priority 2000, dated 2006).
Counter-ions that a name gives are not always drawn.

Columns and labels:
[1] = Growth inhibition, sulforhodamine B (SRB) assay, A2780; assay type: cell-based; conditions: human, A2780 ovarian carcinoma cells, 96 hr incubation, read-out: Cytotoxicity IC50 A2780
Experimental: (§1) Growth inhibition was measured in the following cells lines using the sulforhodamine B (SRB) assay: • A2780: human ovarian carcinoma cell line. • CH1: human ovarian carcinoma cell line. • SKOV-3: human ovarian carcinoma cell line. • A431: human vulval carcinoma cells (short telomeres). • GM847: carcinoma cell line immortalised by ALT pathway.
(§2) Briefly, between 3000 and 6000 cells were seeded into the wells of 96-well microtiter plates and allowed to attach overnight. Test compounds (salts) were dissolved at 500 μM in water and immediately added to wells in quadruplicate at final concentrations of 0.05, 0.25, 1, 5 and 25 μM. Following an incubation period of 96 hr, remaining cells were fixed with ice-cold 10% w/v trichloroacetic acid (30 min) and stained with 0.4% SRB in 1% v/v acetic acid (15 min). Mean absorbance at 540 nm for each drug concentration was expressed as a percentage of the control untreated well absorbance, and IC50 values (concentration required to inhibit cell growth by 50%) were determined for each agent.

[2] = molecular target: T1, telomerase (extracts from A2780 human ovarian carcinoma cells) (Homo sapiens, UniProt O14746); assay: Modified telomeric repeat amplification protocol (TRAP) assay, cell-free; assay type: biochemical; conditions: A2780 cell extract, agent up to 50 μM, 20 min, read-out: telIC50
T1 construct: extracts from exponentially growing A2780 human ovarian carcinoma cells
T1 sequence (O14746 whole entry): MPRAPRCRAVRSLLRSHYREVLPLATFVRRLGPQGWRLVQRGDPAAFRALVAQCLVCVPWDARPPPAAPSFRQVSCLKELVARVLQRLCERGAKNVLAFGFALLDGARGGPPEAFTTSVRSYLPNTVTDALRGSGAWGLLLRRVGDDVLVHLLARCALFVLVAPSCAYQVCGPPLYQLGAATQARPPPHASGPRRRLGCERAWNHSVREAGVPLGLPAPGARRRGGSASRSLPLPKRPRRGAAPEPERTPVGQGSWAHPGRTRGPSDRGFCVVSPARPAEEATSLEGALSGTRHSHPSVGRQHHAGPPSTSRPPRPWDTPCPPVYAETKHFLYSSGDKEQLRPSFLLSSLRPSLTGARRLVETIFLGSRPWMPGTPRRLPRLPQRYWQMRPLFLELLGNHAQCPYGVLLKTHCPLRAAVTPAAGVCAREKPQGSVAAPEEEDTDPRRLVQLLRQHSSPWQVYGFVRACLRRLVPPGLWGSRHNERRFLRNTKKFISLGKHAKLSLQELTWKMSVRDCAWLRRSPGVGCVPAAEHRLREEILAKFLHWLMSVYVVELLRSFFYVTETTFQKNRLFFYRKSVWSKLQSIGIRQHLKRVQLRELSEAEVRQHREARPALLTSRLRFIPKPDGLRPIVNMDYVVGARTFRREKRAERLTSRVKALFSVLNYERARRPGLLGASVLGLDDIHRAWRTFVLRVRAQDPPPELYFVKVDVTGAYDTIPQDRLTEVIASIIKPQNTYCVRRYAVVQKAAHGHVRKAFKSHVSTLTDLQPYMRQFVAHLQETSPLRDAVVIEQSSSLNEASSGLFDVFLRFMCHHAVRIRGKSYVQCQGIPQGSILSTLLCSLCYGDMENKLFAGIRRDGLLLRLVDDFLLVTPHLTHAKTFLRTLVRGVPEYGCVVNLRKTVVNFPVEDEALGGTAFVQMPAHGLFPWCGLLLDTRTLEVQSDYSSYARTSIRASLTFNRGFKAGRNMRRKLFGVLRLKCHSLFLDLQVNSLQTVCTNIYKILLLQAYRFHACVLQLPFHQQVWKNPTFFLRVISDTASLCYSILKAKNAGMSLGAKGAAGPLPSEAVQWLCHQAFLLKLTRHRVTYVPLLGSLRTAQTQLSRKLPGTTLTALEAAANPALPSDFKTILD
Experimental: The ability of compounds to inhibit telomerase in a cell-free assay was assessed with a modified TRAP assay using extracts from exponentially growing A2780 human ovarian carcinoma cells. The TRAP assay was performed in 2 steps: (a) telomerase-mediated extension of the forward primer (TS: 5′-AATCCGTCGAGCAGAGTT, Oswel Ltd., Southampton, UK) contained in a 40 μL reaction mix comprising TRAP buffer (20 mM Tris-HCl (pH 8.3), 68 mM KCl, 1.5 mM MgCl2, 1 mM EGTA, 0.05% v/v Tween 20), 0.05 μg bovine serum albumin, 50 μM of each deoxynucleotide triphosphate, 0.1 μg TS primer, and 3 μCi of [α-^32P]dCTP (Amersham plc, UK). Protein (0.04 μg) was then incubated with the reaction mix±agent (acid addition and quaternary dimethiodide salts) at final concentrations of up to 50 μM for 20 min at […]. A lysis buffer (no protein) control, heat-inactivated protein control, and 50% protein (0.02 μg) control were included in each assay; and (b) while heating at […]. in a PCR block of a thermal cycler (Hybaid, UK) for 5 min to inactivate telomerase activity, 0.1 μg of reverse CX primer (3′-[…]-5′) and 2 Units of Taq DNA polymerase (“red hot”, Advanced Biotechnologies) were added. A 3-step PCR was then performed: 94° C. for 30 s, 50° C. for 30 s, and […]. for 1 min for 31 cycles. Telomerase-extended PCR products in the presence or absence of compounds were then determined either by electrophoretic separation using 8% w/w acrylamide denaturing gels and analysis by phosphorimaging or autoradiography, or by harvesting on Whatman filters (25 mm glass microfibre) and analysis by liquid scintillation counting.

[3] = Growth inhibition, sulforhodamine B (SRB) assay, SKOV-3; assay type: cell-based; conditions: human, SKOV-3 ovarian carcinoma cells, 96 hr incubation, read-out: Cytotoxicity IC50 SKOV-3
Experimental: as §1, §2

[4] = Growth inhibition, sulforhodamine B (SRB) assay, CH1; assay type: cell-based; conditions: human, CH1 ovarian carcinoma cells, 96 hr incubation, read-out: Cytotoxicity IC50 CH1
Experimental: as §1, §2

[5] = Growth inhibition, sulforhodamine B (SRB) assay, GM847; assay type: cell-based; conditions: human, GM847 cells (immortalised by ALT pathway), 96 hr incubation, read-out: Cytotoxicity IC50 GM847
Experimental: as §2, with “Growth inhibition was measured in the following cells lines using the sulforhodamine B (SRB) assay: • A2780: human ovarian carcinoma cell line. • CH1: human ovarian carcinoma cell line. • SKOV-3: human ovarian carcinoma cell line. • A431: human vulval carcinoma cells (short telomeres). • GM847: carcinoma cell line immortalised by ALT pathway. Briefly,” for “Briefly,”

[6] = Growth inhibition, sulforhodamine B (SRB) assay, A431; assay type: cell-based; conditions: human, A431 vulval carcinoma cells (short telomeres), 96 hr incubation, read-out: Cytotoxicity IC50 A431
Experimental: as §2, with “Growth inhibition was measured in the following cells lines using the sulforhodamine B (SRB) assay: • A2780: human ovarian carcinoma cell line. • CH1: human ovarian carcinoma cell line. • SKOV-3: human ovarian carcinoma cell line. • A431: human vulval carcinoma cells (short telomeres). • GM847: carcinoma cell line immortalised by ALT pathway. Briefly,” for “Briefly,”

Row | IC50 [2] [µM] | melting point [°C] | Compound | IC50 at 96 h [1] [µM] | IC50 at 96 h [3] [µM] | IC50 at 96 h [4] [µM] | IC50 at 96 h [5] [µM] | IC50 at 96 h [6] [µM]
1 | – | 250 to 252 | Cc1cc2c3c([n+](C)c4ccc(Cl)cc4c3c1)-c1cc(Cl)ccc1N2C (as salt: sulfate) [RHPS02, 3,11-Dichloro-6,8,13-trimethyl-8H-quino[4,3,2-kl]acridinium methylsulfate] | – | – | – | – | –
2 | 0.94 | – | CN1c2cc(Cl)ccc2-c2c3c1cccc3c1cc(Cl)ccc1[n+]2C [RHPS07, 3,10-Dichloro-8,13-dimethyl-8H-quino[4,3,2-kl]acridinium iodide] | 14.5 | > 25 | 3.8 | – | –
3 | 0.28 | – | COc1cc2c3c([n+](C)c4ccccc4c3c1)-c1ccc(Cl)cc1N2C [RHPS12, 10-Chloro-8,13-dimethyl-6-methoxy-8H-quino[4,3,2-kl]acridinium iodide] | – | 10 | 0.3 | 0.4 | 1
4 | 0.24 | – | COc1cc2c3c([n+](C)c4ccc(Cl)cc4c3c1)-c1ccccc1N2C [RHPS10, 3-Chloro-8,13-dimethyl-6-methoxy-8H-quino[4,3,2-kl]acridinium iodide] | – | 6.3 | 1.1 | 0.8 | 3.2
5 | 3.02 | – | COC(=O)CCc1ccc2c(c1)c1cccc3c1c([n+]2C)-c1ccccc1N3C [RHPS09, 3-(8,13-Dimethyl-8H-quino[4,3,2-kl]acridinium-3-yl)-propionic acid methyl ester iodide] | > 25 | > 25 | 11.5 | – | –
6 | 0.37 | – | CN1c2ccccc2-c2c3c1cccc3c1cc(/C=C/C(=O)N3CCOCC3)ccc1[n+]2C [RHPS16, 8,13-Dimethyl-(E)-3-(3-morpholin-4-yl-3-oxo-propenyl)-8H-quino[4,3,2-kl]acridinium iodide] | – | > 25 | 17.8 | > 25 | 12.5
7 | – | 190 to 192 | Cc1cc2c3c([n+](C)c4ccccc4c3c1)-c1ccccc1N2C (as salt: sulphate) [RHPS01, 6,8,13-Trimethyl-8H-quino[4,3,2-kl]acridinium methyl sulphate] | – | – | – | – | –

More lines, now with the values behind:

Row | Compound | IC50 [2] [µM] | melting point [°C] | IC50 at 96 h [1] [µM] | IC50 at 96 h [3] [µM] | IC50 at 96 h [4] [µM] | IC50 at 96 h [5] [µM] | IC50 at 96 h [6] [µM]
8 | COc1cc2c3c([n+](C)c4ccccc4c3c1)-c1ccccc1N2C [RHPS08, 8,13-Dimethyl-6-methoxy-8H-quino[4,3,2-kl]acridinium iodide] | 0.47 | – | 0.62 | 3.6 | 0.13 | – | –
9 | Cc1cc2c3c([n+](C)c4ccc(Cl)cc4c3c1)-c1cc(Cl)ccc1N2C [RHPS02, 3,11-Dichloro-6,8,13-trimethyl-8H-quino[4,3,2-kl]acridinium methylsulfate] | 0.24 | – | 1.3 | 9.3 | 1.4 | – | –
10 | CC(=O)Oc1cc2c3c([n+](C)c4ccccc4c3c1)-c1ccccc1N2C [RHPS11, 6-Acetoxy-8,13-dimethyl-8H-quino[4,3,2-kl]acridinium iodide] | 1.7 | – | – | 3.5 | 1.6 | 17.7 | 1.7
11 | CN1c2ccccc2-c2c3c1cccc3c1cc(Cl)ccc1[n+]2C [RHPS06, 3-Chloro-8,13-dimethyl-8H-quino[4,3,2-kl]acridinium iodide] | 0.26 | – | 1.1 | 12.5 | 0.5 | – | –
12 | COC(=O)/C=C/c1ccc2c(c1)c1cccc3c1c([n+]2C)-c1ccccc1N3C (as salt: iodide) [RHPS15, (E)-3-(8,13-Dimethyl-8H-quino[4,3,2-kl]acridinium-3-yl)-acrylic acid methyl ester iodide] | – | 200 to 202 | – | – | – | – | –
13 | Cc1ccc2c(c1)-c1c3c(cc(C)cc3c3cc(C)ccc3[n+]1C)N2C (as salt: sulphate) [RHPS03, 3,6,8,11,13-Pentamethyl-8H-quino[4,3,2-kl]acridinium methyl sulphate] | – | 240 to 242 | – | – | – | – | –
14 | COC(=O)Oc1cc2c3c([n+](C)c4ccccc4c3c1)-c1ccccc1N2C [RHPS13, 6-Methoxycarbonyloxy-8,13-dimethyl-8H-quino[4,3,2-kl]acridinium iodide] | 0.57 | – | – | 1.5 | 0.2 | 0.5 | 0.4
15 | CN1c2ccccc2-c2c3c1cccc3c1cc(Cl)ccc1[n+]2C (as salt: iodide) [RHPS06, 3-Chloro-8,13-dimethyl-8H-quino[4,3,2-kl]acridinium iodide] | – | 225 to 227 | – | – | – | – | –
16 | CN1c2ccccc2-c2c3c1cccc3c1ccccc1[n+]2C [RHPS05, 8,13-Dimethyl-8H-quino[4,3,2-kl]acridinium iodide] | 1.55 | – | 1.6 | 18 | 1.1 | – | –
17 | Cc1cc2c3c([n+](C)c4ccc(F)cc4c3c1)-c1cc(F)ccc1N2C [RHPS04, 3,11-Difluoro-6,8,13-trimethyl-8H-quino[4,3,2-kl]acridinium methyl sulphate] | 0.31 | – | 1.1 | 23 | 0.5 | – | –
18 | Cc1ccc2c(c1)-c1c3c(cc(C)cc3c3cc(C)ccc3[n+]1C)N2C [RHPS03, 3,6,8,11,13-Pentamethyl-8H-quino[4,3,2-kl]acridinium methyl sulphate] | 0.18 | – | 0.33 | 0.75 | 0.29 | – | –
19 | Cc1cc2c3c([n+](C)c4ccccc4c3c1)-c1ccccc1N2C [RHPS01, 6,8,13-Trimethyl-8H-quino[4,3,2-kl]acridinium methyl sulphate] | 0.74 | – | 0.9 | 3.6 | 0.37 | – | –
20 | COC(=O)/C=C/c1ccc2c(c1)c1cccc3c1c([n+]2C)-c1ccccc1N3C [RHPS15, (E)-3-(8,13-Dimethyl-8H-quino[4,3,2-kl]acridinium-3-yl)-acrylic acid methyl ester iodide] | 0.19 | – | – | 19 | 2.2 | 4.5 | 3.2
